# Columns and labels:
# [1] = BTX-2 5 μM, 60 min incubations with HLM and fish microsomes
# [2] = RSN1 control without NADPH regeneration system
# [3] = HLM incubation, decreasing thereafter
# [4] = Chemical GSH conjugation of BTX-2 without microsomes; format: physicochemical
# [5] = GSH conjugation of BTX-2 with deactivated RSN2 microsomes and 100 μM GSH; format: in vitro ADME, Lutjanus campechanus
# [6] = GSH conjugation of BTX-2 with active RSN2 microsomes and 100 μM GSH; format: in vitro ADME, Lutjanus campechanus
substance,measurement,setting,value
Hydroxyl BTX-2 (rings A-E) [Compound 4b],occurrence of the metabolite across microsomal incubations,[1],occurred mainly in the two Lutjanid species
BTX-9 [Compound 3],metabolite formation where the NADPH regeneration system was excluded,[2],not formed
"41,43-dihydro-BTX-2 [Compound 2b]",time at which the metabolite reached a maximum,[3],about 15 min
BTX-2-GSH [Compound 12],formation rate of BTX-2-GSH,[4],0.46 min⁻¹
same,formation rate of BTX-2-GSH,[5],0.46 min⁻¹
same,formation rate of BTX-2-GSH,[6],0.18 min⁻¹
"41,43-dihydro-BTX-B5 [Compound 5d]",occurrence of the metabolite across microsomal incubations,[1],only produced by HLM
A-ring hydrolyzed BTX-3 [Compound 6a],occurrence of the metabolite across microsomal incubations,[1],produced in all fish microsomes and in HLM
"41,43-dihydro-BTX-B5 [Compound 5e]",occurrence of the metabolite across microsomal incubations,[1],only produced by HLM
